According to publication PMC8943139, “Cryo-EM structure of transmembrane AAA+ protease FtsH in the ADP state” (Communications Biology, 2022):

Key:
[1] = target: T1, TmFtsH (FtsH from Thermotoga maritima), full length (Thermotoga maritima, UniProt Q9WZ49, H423Y); assay: cryo-EM structure ([…] A); format: binding; conditions: six ADP per hexamer, one in each ATPase domain; endogenous co-purified ADP, none added; MSP1D1 nanodiscs, pH 7.6; C6 symmetry
T1 construct: full length, His-tag purification (HisTrap), E. coli BL21(DE3) pLysS membranes, LDAO, reconstituted in MSP1D1 nanodiscs with soybean polar lipids; homohexamer; only ATPase and protease domains modelled (2484 residues per hexamer)

[2] = target: the molecule itself; assay: cryo-EM structure; TmFtsH H423Y in MSP1D1 nanodiscs (soybean polar lipids), diluted in 20 mM HEPES pH 7.6, 100 mM NaCl, 0.05% CHAPS; no ADP or ATP added; C6 reconstruction at 3.15 Å (C1: 3.4 Å) of the ATPase and protease domains; full-length reconstruction at 7.9 Å without symmetry

Row | Molecule | cryo-EM structure (3.15 A) [1] | stoichiometry N [2]
1 | Nc1ncnc2c1ncn2[C@@H]1O[C@H](COP(=O)(O)OP(=O)(O)O)[C@@H](O)[C@H]1O [ADP] | ADP bound endogenously to TmFtsH and survived the co-purification and reconstitution processes | –
2 | Thermotoga maritima FtsH (TmFtsH) H423Y mutant, full length (enzyme, UniProt Q9WZ49 1-610, looked up, FtsH (Filamentation Temperature Sensitive Protein H) of Thermotoga maritima, full-length cDNA in the pET24-derived pMSCG-7 plasmid, with the H423Y mutation; 610 residues are named in the comparison with YME1; The vector probably adds an N-terminal His6 tag with a TEV site (surmised), and no cleavage is described; The atomic model 7TDO covers only the ATPase and protease domains (2484 residues in …)) MNRSNIWNLLFTILIIVTLFWLARFFYVENSPVSKLSYTSFVQMVEDERSVVSEVVIRDDGVLRVYTKDGRVYEVDAPWAVNDSQLIEKLVSKGIKVSGERSGSSSFWINVLGTLIPTILFIVVWLFIMRSLSGRNNQAFTFTKSRATMYKPSGNKRVTFKDVGGAEEAIEELKEVVEFLKDPSKFNRIGARMPKGILLVGPPGTGKTLLARAVAGEANVPFFHISGSDFVELFVGVGAARVRDLFAQAKAHAPCIVFIDEIDAVGRHRGAGLGGGHDEREQTLNQLLVEMDGFDSKEGIIVMAATNRPDILDPALLRPGRFDKKIVVDPPDMLGRKKILEIHTRNKPLAEDVNLEIIAKRTPGFVGADLENLVNEAALLAAREGRDKITMKDFEEAIDRVIAGPARKSKLISPKEKRIIAYYEAGHAVVSTVVPNGEPVHRISIIPRGYKALGYTLHLPEEDKYLVSRNELLDKLTALLGGRAAEEVVFGDVTSGAANDIERATEIARNMVCQLGMSEELGPLAWGKEEQEVFLGKEITRLRNYSEEVASKIDEEVKKIVTNCYERAKEIIRKYRKQLDNIVEILLEKETIEGDELRRILSEEFEKVVE | – | 6
